Assay results published in ChEMBL document CHEMBL4325862, “Identification of novel quinazoline derivatives as potent antiplasmodial agents” (Eur J Med Chem, 2019).

Key:
Plasmodium falciparum [1] = test: Antiplasmodial activity against asynchronous form of Plasmodium falciparum 3D7 infected in human erythrocytes assessed as parasite growth inhibition at 10 uM after 48 hrs by SYBR green1 staining based flow cytometry relative to control; format: functional; conditions: 3D7, 48 h
Plasmodium falciparum [2] = test: Antiplasmodial activity against asynchronous form of Plasmodium falciparum 3D7 infected in human erythrocytes assessed as parasite growth inhibition after 48 hrs by SYBR green1 staining based flow cytometry; format: functional, organism-based; conditions: 3D7, 48 h
Plasmodium falciparum [3] = test: Antiplasmodial activity against Plasmodium falciparum Dd2 infected in human erythrocytes assessed as reduction in [3H]-hypoxanthine incorporation measured after 48 hrs by microbeta liquid scintillation counting method; format: functional, organism-based
Plasmodium falciparum [4] = test: Antiplasmodial activity against asynchronous form of Plasmodium falciparum W2 infected in human erythrocytes assessed as parasite growth inhibition after 48 hrs by SYBR green1 staining based flow cytometry; format: functional, organism-based; conditions: W2, 48 h
[5] = Cytotoxicity against mouse spleen cells; format: cell-based
[6] = Selectivity index, ratio of IC50 for mouse spleen cells to IC50 for asynchronous form of Plasmodium falciparum 3D7 infected in human erythrocytes; format: toxicity, cell-based; conditions: read-out: Ratio IC50
HFF = test: Cytotoxicity against HFF; format: cell-based; conditions: Homo sapiens
Histone deacetylase 1 = Histone deacetylase 1 (Homo sapiens, UniProt Q13547); test: Inhibition of recombinant human HDAC1 using RHK-K(Ac) as substrate by homogeneous fluorescence release assay
Histone deacetylase 1, sequence (Q13547 whole entry): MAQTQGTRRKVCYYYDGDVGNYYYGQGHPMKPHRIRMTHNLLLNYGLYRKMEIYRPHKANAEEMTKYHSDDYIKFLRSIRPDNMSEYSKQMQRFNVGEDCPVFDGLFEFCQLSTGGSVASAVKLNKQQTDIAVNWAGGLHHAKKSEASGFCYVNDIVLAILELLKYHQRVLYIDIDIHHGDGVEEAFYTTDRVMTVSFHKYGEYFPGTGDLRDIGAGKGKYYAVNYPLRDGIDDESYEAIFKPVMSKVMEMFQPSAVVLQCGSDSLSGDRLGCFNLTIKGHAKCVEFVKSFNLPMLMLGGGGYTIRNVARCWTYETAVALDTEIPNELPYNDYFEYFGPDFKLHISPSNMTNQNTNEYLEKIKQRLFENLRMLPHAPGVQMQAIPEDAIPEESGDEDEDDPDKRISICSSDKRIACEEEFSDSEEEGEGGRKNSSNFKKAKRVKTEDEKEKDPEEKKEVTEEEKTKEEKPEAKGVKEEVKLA

Histone deacetylase 4 = Histone deacetylase 4 (Homo sapiens, UniProt P56524); test: Inhibition of recombinant human HDAC4 using Boc-Lys(trifluoroacetyl)-AMC as substrate by homogeneous fluorescence release assay
Histone deacetylase 4, sequence (P56524 whole entry): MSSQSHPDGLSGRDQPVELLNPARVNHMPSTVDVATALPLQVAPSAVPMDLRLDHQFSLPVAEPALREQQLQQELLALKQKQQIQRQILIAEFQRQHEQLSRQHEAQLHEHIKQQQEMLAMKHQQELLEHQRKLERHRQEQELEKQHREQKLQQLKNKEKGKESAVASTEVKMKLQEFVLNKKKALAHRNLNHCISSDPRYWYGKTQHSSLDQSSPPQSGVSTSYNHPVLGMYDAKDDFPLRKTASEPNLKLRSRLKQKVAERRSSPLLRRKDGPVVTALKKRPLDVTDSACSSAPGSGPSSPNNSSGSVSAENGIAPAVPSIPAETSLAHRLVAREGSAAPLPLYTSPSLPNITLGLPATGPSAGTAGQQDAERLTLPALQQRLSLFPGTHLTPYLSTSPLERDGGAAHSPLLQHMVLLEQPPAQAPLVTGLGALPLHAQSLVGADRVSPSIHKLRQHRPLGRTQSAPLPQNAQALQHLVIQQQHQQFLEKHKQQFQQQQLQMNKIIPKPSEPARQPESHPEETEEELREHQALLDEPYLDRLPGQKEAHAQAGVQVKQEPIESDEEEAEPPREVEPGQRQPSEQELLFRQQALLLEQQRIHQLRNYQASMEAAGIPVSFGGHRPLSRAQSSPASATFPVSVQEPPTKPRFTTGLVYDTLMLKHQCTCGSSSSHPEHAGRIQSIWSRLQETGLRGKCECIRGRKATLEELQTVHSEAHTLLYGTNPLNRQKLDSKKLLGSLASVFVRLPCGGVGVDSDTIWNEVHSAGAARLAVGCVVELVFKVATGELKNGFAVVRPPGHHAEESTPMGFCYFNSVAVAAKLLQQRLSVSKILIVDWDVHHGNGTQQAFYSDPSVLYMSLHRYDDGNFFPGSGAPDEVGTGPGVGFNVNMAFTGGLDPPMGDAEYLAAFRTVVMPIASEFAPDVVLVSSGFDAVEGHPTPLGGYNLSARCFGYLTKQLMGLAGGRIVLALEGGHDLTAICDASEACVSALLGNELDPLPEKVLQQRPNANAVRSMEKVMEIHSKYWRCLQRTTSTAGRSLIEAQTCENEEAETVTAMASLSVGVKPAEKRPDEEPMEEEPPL

[7] = target: T1, Protein deacetylase HDAC6 (Homo sapiens, UniProt Q9UBN7); test: Inhibition of recombinant human HDAC6 using RHK-K(Ac) as substrate by homogeneous fluorescence release assay
T1 sequence (Q9UBN7 whole entry): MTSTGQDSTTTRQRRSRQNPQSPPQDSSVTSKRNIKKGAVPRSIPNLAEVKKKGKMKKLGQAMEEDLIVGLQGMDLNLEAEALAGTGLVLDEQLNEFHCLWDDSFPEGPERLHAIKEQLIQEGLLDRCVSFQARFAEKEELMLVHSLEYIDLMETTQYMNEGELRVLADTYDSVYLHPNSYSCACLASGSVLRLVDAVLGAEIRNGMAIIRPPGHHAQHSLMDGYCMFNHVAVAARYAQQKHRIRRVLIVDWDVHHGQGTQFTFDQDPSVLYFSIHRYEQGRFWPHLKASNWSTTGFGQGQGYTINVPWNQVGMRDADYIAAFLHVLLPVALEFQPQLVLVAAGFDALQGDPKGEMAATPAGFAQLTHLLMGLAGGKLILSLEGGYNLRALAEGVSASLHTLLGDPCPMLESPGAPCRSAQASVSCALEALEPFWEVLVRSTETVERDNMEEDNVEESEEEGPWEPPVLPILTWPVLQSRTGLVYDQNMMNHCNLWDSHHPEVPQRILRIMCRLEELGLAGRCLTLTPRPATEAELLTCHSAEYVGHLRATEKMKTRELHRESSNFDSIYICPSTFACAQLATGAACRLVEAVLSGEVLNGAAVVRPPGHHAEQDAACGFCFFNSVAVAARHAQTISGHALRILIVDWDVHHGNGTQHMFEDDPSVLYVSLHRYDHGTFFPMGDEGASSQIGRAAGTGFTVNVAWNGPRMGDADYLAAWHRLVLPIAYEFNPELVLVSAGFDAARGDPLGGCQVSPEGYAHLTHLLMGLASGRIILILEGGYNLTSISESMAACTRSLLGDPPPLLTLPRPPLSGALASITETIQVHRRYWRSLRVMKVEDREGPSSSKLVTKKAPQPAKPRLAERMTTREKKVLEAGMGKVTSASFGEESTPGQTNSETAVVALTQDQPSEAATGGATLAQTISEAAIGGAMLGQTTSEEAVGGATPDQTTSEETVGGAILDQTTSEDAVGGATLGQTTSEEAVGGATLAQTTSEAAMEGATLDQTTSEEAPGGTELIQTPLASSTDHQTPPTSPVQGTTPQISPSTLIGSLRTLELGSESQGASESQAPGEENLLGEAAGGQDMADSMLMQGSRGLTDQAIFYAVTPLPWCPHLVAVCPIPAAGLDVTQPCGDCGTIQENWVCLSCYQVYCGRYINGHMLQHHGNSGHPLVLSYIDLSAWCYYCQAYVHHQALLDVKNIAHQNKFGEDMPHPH

[8] = target: DNA (cytosine-5)-methyltransferase 1 (Homo sapiens, UniProt P26358); test: Inhibition of recombinant human DNMT1 using biotinylated DNA duplex as substrate measured after 2 hrs in presence of Adomet/[methyl-3H]Adomet by topcount method
DNA (cytosine-5)-methyltransferase 1, sequence (P26358 whole entry, the tested form may be a part): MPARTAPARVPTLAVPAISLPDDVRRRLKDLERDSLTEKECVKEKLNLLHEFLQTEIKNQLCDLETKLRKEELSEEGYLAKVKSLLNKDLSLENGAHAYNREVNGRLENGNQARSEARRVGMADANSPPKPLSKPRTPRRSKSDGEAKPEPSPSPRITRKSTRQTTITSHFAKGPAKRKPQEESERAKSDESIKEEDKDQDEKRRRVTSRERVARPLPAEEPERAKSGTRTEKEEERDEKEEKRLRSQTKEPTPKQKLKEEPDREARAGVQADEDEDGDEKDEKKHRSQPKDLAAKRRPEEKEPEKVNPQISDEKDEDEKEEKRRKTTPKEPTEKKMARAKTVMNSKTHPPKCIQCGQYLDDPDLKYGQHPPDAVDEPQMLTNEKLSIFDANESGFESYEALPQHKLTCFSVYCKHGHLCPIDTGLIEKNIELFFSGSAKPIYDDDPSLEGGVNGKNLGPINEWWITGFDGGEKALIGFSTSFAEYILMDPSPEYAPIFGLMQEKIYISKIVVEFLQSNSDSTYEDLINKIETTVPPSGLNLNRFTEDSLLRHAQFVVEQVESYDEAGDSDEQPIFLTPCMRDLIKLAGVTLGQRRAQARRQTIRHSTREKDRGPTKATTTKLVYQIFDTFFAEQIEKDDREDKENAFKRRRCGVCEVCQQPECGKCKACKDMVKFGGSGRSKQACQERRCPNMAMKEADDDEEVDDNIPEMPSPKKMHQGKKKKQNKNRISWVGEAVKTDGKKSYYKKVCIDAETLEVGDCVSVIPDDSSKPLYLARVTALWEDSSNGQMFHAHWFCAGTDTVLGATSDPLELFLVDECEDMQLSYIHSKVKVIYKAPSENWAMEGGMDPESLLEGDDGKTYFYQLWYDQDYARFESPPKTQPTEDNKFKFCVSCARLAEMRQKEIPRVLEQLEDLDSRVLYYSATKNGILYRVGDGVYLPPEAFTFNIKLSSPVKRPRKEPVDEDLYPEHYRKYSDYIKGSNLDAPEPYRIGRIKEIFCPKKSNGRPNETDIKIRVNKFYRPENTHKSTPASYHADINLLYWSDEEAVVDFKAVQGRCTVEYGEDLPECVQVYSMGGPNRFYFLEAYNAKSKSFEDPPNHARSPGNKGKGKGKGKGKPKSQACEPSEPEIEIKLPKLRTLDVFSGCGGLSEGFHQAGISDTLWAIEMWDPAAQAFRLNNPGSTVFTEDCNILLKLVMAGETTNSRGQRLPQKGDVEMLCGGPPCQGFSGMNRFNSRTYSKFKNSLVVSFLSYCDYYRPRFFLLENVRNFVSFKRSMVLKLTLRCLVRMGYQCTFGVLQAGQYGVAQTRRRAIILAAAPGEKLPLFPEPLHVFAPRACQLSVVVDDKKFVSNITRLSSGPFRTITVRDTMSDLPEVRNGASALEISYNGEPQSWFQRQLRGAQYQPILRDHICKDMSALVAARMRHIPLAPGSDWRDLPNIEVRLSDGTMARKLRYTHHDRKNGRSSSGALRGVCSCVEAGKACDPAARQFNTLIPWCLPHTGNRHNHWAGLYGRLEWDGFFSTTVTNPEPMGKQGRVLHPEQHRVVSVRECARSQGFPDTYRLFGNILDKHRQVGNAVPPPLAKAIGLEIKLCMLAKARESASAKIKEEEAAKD

[9] = target: DNA (cytosine-5)-methyltransferase 3A (Homo sapiens, UniProt Q9Y6K1); test: Inhibition of recombinant human DNMT3a C-terminal catalytic domain (623 to 908 residues) using 5'-biotinylated/3'-FAM-oligonucleotide as substrate measured after 1 hr in presence of Adomet by fluorescence assay
DNA (cytosine-5)-methyltransferase 3A, sequence (Q9Y6K1 whole entry, looked up, the tested form may be a part): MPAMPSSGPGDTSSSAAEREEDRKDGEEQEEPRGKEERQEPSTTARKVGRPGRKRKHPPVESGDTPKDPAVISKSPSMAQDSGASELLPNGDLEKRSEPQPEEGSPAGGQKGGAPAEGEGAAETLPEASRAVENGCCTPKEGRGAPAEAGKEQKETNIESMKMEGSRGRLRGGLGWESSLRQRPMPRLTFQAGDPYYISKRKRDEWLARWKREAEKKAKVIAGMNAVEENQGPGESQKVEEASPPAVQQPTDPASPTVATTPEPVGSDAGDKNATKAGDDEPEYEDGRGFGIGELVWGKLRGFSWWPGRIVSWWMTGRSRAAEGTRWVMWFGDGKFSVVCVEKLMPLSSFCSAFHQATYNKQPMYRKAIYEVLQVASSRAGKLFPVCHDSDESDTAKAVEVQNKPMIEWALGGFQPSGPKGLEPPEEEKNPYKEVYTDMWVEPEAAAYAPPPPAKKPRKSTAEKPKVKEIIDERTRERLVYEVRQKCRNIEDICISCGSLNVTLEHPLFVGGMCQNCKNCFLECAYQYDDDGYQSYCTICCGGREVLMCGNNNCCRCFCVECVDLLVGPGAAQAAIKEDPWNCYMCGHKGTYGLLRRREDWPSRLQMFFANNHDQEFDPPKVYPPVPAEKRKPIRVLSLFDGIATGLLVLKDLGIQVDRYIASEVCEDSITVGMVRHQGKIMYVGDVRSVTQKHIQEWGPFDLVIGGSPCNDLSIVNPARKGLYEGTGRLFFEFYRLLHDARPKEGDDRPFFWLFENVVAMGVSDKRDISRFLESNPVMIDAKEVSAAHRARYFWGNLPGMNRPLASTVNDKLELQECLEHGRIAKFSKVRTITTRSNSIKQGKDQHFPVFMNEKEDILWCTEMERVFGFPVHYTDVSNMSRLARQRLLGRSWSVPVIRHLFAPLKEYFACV

| Structure (SMILES) | inhibition at 10 µM (Plasmodium falciparum [1]) [%] | IC50 (Plasmodium falciparum [2]) [nM] | other results |
| --- | --- | --- | --- |
| NC1CC1c1ccc(NC(=O)CCCCCNC(=O)c2ccc(O)c3ncccc23)cc1 (stereo unspecified) | 96.7 | > 1000 | – |
| CCCCCCCCCCCCCCC=C(C(=O)OCC)C(=O)OCC | 92.7 | > 1000 | – |
| NC1CC1c1ccc(NC(=O)[C@H](Cc2ccccc2)NC(=O)OCc2ccccc2)cc1 (stereo partly specified) | 64.6 | > 1000 | – |
| O=C(O)c1ccc(O)c2ncccc12 | 25.4 | – | – |
| NC1CC1c1ccc(NC(=O)CCCCNC(=O)c2ccc(O)c3ncccc23)cc1 (stereo unspecified) | 97.8 | > 1000 | – |
| O=S(=O)(c1cccc(C(F)(F)F)c1)N1c2ccccc2-n2cccc2C1c1cccnc1 (stereo unspecified) | 99.5 | 671 | – |
| O=C1/C(=C/c2ccc(O)c(Br)c2)CSC/C1=C\c1ccc(O)c(Br)c1 | 99.5 | 952 | – |
| COc1cc2nc(N3CCCN(C)CC3)nc(NC3CCN(Cc4ccccc4)CC3)c2cc1OC | 100 | 20.8 to 23.7 | IC50 (Plasmodium falciparum [3]): 9.7 nM; IC50 (Plasmodium falciparum [4]): 16.7 nM; IC50 [5]: 555 nM; selectivity ratio [6]: 23; IC50 (HFF): 5 µM |
| CC(C(=O)Nc1cccc(/N=C/c2c(O)ccc3ccccc23)c1)c1ccccc1 (stereo unspecified) [SALERMIDE] | 72.3 | > 1000 | – |
| c1ccc(CN2CCC(Nc3nc(N4CCN(c5ccccc5)CC4)nc4ccccc34)CC2)cc1 | 100 | 326 | – |
| CC(C)(C)OC(=O)Nc1cccc(C(=O)/C=C/c2ccc(/C=C/C(=O)NO)cc2)c1 | 100 | 422 | – |
| O=C(Cc1ccccc1)Nc1ccc(C(=O)NO)nc1 | 97.8 | > 1000 | IC50 (Histone deacetylase 1): 200 nM; IC50 (Histone deacetylase 4): 11 µM; IC50 [7]: 37 nM |
| O=C(CCCCCSc1nc(-c2ccc(-c3ccccc3)cc2)cc(=O)[nH]1)NO | 97.4 | 50.9 | IC50 (Histone deacetylase 1): 100 nM; IC50 (Histone deacetylase 4): > 50 µM; IC50 [7]: 9 nM |
| COc1ccc2nc(N3CCN(c4ccccc4)CC3)nc(NC3CCN(Cc4ccccc4)CC3)c2c1 | 100 | 52.5 | EC50 [8]: > 100 µM; EC50 [9]: 5.4 µM |
| O=C(CCCCSc1nc(-c2ccc(Cl)cc2)cc(=O)[nH]1)NO | 98 | 88.6 | – |
| c1ccc(CCCN2CCC(Nc3nc(N4CCN(c5ccccc5)CC4)nc4ccccc34)CC2)cc1 | 100 | 75.1 | EC50 [8]: > 100 µM; EC50 [9]: 5.1 µM |
| NC1CC1c1ccc(NC(=O)c2ccc(-c3ccccc3)cc2)cc1 (stereo unspecified) | 97.5 | > 1000 | – |
| Nc1ccccc1NC(=O)c1ccc(CNC(=O)OCc2cccnc2)cc1 [ENTINOSTAT] | 50.9 | > 1000 | – |
| O=C(Cc1cccc2ccccc12)Nc1ccc(C(=O)NO)nc1 | 97.9 | > 1000 | IC50 (Histone deacetylase 1): 300 nM; IC50 (Histone deacetylase 4): > 50 µM; IC50 [7]: 26 nM |
| Cc1cc(C)c(CNC(=O)c2cnn(-c3ccccc3)c2C)c(=O)[nH]1 | 14.7 | – | – |

| Structure (SMILES) | inhibition at 10 µM (Plasmodium falciparum [1]) [%] | IC50 (Plasmodium falciparum [2]) [nM] | other results |
| --- | --- | --- | --- |
| O=C(CCCCSc1nc(-c2ccc3ccccc3c2)cc(=O)[nH]1)NO | 97.9 | 25.2 | IC50 (Histone deacetylase 1): 1700 nM; IC50 (Histone deacetylase 4): > 50 µM; IC50 [7]: 12 nM |
| CC1=C(/C=C/C(C)=C/C=C/C(C)=C/C(=O)Nc2ccccc2N)C(C)(C)CCC1 | 97.1 | > 1000 | – |
| COc1cc2nc(N3CCN(c4ccccc4)CC3)nc(NC3CCN(Cc4ccccc4)CC3)c2cc1OC | 100 | 37.8 | EC50 [8]: > 100 µM; EC50 [9]: 5.4 µM |
| CCOC(=O)C1=CN(Cc2ccccc2)C=C(C(=O)OCC)C1c1ccccc1 | 97.2 | > 1000 | – |
| COc1cc2c(NC3CCN(C(C)C)CC3)nc(C3CCCCC3)nc2cc1OCCCN1CCCC1 | 100 | 67.9 to 68.7 | IC50 (Plasmodium falciparum [3]): 16.8 nM; IC50 (Plasmodium falciparum [4]): 38.5 nM; IC50 [5]: 1440 nM; selectivity ratio [6]: 21; IC50 (HFF): 2.29 µM |
| c1ccc(N2CCN(c3nc(NC4CCN(Cc5ccc6ccccc6c5)CC4)c4ccccc4n3)CC2)cc1 | 100 | 138 | EC50 [8]: > 100 µM; EC50 [9]: 2.4 µM |
| COc1ccc2c(NC3CCN(Cc4ccccc4)CC3)nc(N3CCN(c4ccccc4)CC3)nc2c1 | 100 | 83 | EC50 [8]: > 100 µM; EC50 [9]: 4.6 µM |
| c1ccc(CCN2CCC(Nc3nc(N4CCN(c5ccccc5)CC4)nc4ccccc34)CC2)cc1 | 100 | 98.9 | EC50 [8]: > 100 µM; EC50 [9]: 5.4 µM |
| NC1CC1c1ccc(NC(=O)CCCNC(=O)c2ccc(O)c3ncccc23)cc1 (stereo unspecified) | 45.3 | – | – |
| O=C(/C=C/c1ccc(Cc2nnc(Cc3cccc4ccccc34)o2)cc1)NO | 98 | 244 | – |
| Cn1c(/C=C/C(=O)NO)ccc1/C=C/C(=O)c1cccc(Cl)c1 | 89.6 | > 1000 | – |
| NC1CC1c1ccc(NC(=O)c2ccc(O)c3ncccc23)cc1 (stereo unspecified) | 98.9 to 100 | 776 to 1000 | – |
| CCOC(=O)c1c(C)nc2ccccc2c1O | 60.1 | > 1000 | – |
| CC(C)N(CCCNC(=O)Nc1ccc(C(C)(C)C)cc1)C[C@H]1O[C@@H](n2cnc3c(N)ncnc32)[C@H](O)[C@@H]1O | 9.7 | – | – |
| O=C(/C=C/c1ccccc1CSc1nc(O)cc(-c2ccccc2)n1)NO | 2.8 | – | – |
| O=C1/C(=C/c2ccc(O)c(Br)c2)CN(Cc2ccccc2)C/C1=C\c1ccc(O)c(Br)c1 | 100 | > 1000 | – |
| CC1=NN(c2ccc(C(=O)O)cc2)C(=O)/C1=C\c1ccc(-c2cc(C)c(C)cc2[N+](=O)[O-])o1 | 12.8 | – | – |
| O=c1[nH]c(SCCN2CCN(c3ccccn3)CC2)nc2ccccc12 | 2 | – | – |
| BrCCCc1nc(-c2ccc(Br)cc2)no1 | 18.7 | – | – |
| O=c1nc2oc3ccc4ccccc4c3cc-2c(=O)n1-c1ccccc1 | 80.5 | > 1000 | – |
